Several values for one entry are separate records, joined by “and”; a condition that tells them apart may be missing. Equal entries are not always repeated.
Columns and labels:
Assay in all cases: CTG-3D luminescence at 96 h relative to day-0 seeding control (ratio to day 0); higher = more growth / less cytotoxicity; PDxO 3D drug screen (set 2), 96 h, CTG-3D normalised to day-0 seeding control.
MDA-MB-231 = system: MDA-MB-231
HCI-019 = system: HCI-019 (organoid from a triple-negative breast cancer xenograft)
HCI-003.E2 = system: HCI-003.E2 (organoid from an ER-positive breast cancer xenograft)
HCI-025 = system: HCI-025 (organoid from a breast cancer xenograft)
HCI-024 = system: HCI-024 (organoid from a breast cancer xenograft)
HCI-008 = system: HCI-008 (organoid from a HER2-enriched breast cancer xenograft)

O=C(c1cc(Cc2n[nH]c(=O)c3ccccc23)ccc1F)N1CCN(C(=O)C2CC2)CC1 [olaparib]
CTG-3D luminescence at 96 h
Details	12.5 pM	0.00025 µM	0.005 µM	0.1 µM	1 µM	10 µM	100 µM	625 fM
HCI-003.E2	2.72	2.74	2.72	2.75	2.24	1.27	0.0215	2.79
MDA-MB-231	5.57 and 5.09	5.62 and 5.21	5.57 and 5.41	5.38 and 5.09	5.15 and 5.11	4.31 and 4.38	3.27 and 2.33	5.41 and 5.09

CTG-3D luminescence at 96 h
Details	12.5 pM	0.00025 µM	0.005 µM	0.1 µM	1 µM	10 µM	100 µM	625 fM
HCI-008, days in culture: 325	1.39	1.88	1.46	3.33	2.71	1.99	0.484	1.65
HCI-008, days in culture: 340	1.45	2.1	1.84	1.46	1.67	–	0.958	1.34
HCI-008, days in culture: 354	1.36	1	1.35	1.2	1.22	1.33	0.836	1.44
HCI-008, days in culture: 382	1.49	1.46	1.23	2	0.89	0.955	0.204	1.8
HCI-019, days in culture: 173	2.78	1.9	2.2	2.31	0.982	0.711	1.32	1.96
HCI-019, days in culture: 194	0.984	1.95	2.68	1.65	1.48	0.946	0.789	2.41
HCI-019, days in culture: 215	2	2.06	1.04	1.59	1.06	0.36	0.254	1.33
HCI-024, days in culture: 202	0.819	0.984	0.907	1.28	0.775	1.01	0.38	1.05
HCI-024, days in culture: 231	0.787	0.983	0.972	1.27	1.78	1.27	0.836	1.4
HCI-024, days in culture: 254	1.65	1.41	1.28	1.24	1.88	1.07	0.671	1.54
HCI-025, days in culture: 175	1.97	2.33	1.9	1.95	3.08	2.2	0.866	2.02
HCI-025, days in culture: 189	1.46	2.11	1.91	2.25	1.86	1.28	0.825	2.78
HCI-025, days in culture: 212	3.74	3.65	1.79	1.22	1.32	1.72	0.66	2
HCI-025, days in culture: 224	1.96	1.72	1.81	1.9	2.05	1.41	0.478	1.81

Reference: the supplement of paper PMC8882468
